From patent US8513270B2, “Substituted heterocycles as Janus kinase inhibitors” (Incyte Corporation, priority 2006, dated 2013)
Counter-ions that a name gives are not always drawn.

Key:
[1] = tested on: JAK2_INA61 (cancer cell line dependent on cytokines and JAK/STAT signal transduction); assay: Cellular assay: viability of cytokine-dependent cancer cell line (CellTiter-Glo); format: cell-based; conditions: 72 hours, read-out: EXAMPLE B JAK2_INA61 IC50
Protocol: One or more compounds herein were tested for inhibitory activity of JAK targets according to at least one of the following cellular assays.
Compounds were added to the cells in DMSO/media (final concentration 0.2% DMSO) and incubated for 72 hours at 37° C., 5% CO2. The effect of compound on cell viability was assessed using the CellTiter-Glo Luminescent Cell Viability Assay (Promega) followed by TopCount (Perkin Elmer, Boston, Mass.) quantitation. Potential off-target effects of compounds were measured in parallel using a non-JAK driven cell line with the same assay readout. […] All experiments were performed in duplicate.

[2] = biological target: T1, human JAK3 (a.a. 781-1124) (Homo sapiens, UniProt P52333); assay: In vitro JAK kinase assay (HTRF), JAK3; format: biochemical; conditions: JAK3, 3 μM ATP; read-out: EXAMPLE A JAK2-JAK3 HTRF-2 IC50
T1 construct: JAK3 (a.a. 781-1124); His tag (N); made in house; host or cells: insect cells (baculovirus)
Protocol: (§1) Compounds herein were tested for inhibitory activity of JAK targets according to the following in vitro assay described in Park et al., Analytical Biochemistry 1999, 269, 94-104. The catalytic domains of human JAK1 (a.a. 837-1142), JAK2 (a.a. 828-1132) and JAK3 (a.a. 781-1124) with an N-terminal His tag were expressed using baculovirus in insect cells and purified. The catalytic activity of JAK1, JAK2 or JAK3 was assayed by measuring the phosphorylation of a biotinylated peptide. The phosphorylated peptide was detected by homogenous time resolved fluorescence (HTRF). IC50s of compounds were measured for each kinase in the reactions that contain the enzyme, ATP and 500 nM peptide in 50 mM Tris (pH 7.8) buffer with 100 mM NaCl, 5 mM DTT, and 0.1 mg/mL (0.01%) BSA. The ATP concentration in the reactions was 90 μM for JAK1, 30 μM for JAK2 and 3 μM for JAK3. Reactions were carried out at room temperature for 1 hr and then stopped with 20 μL 45 mM EDTA, 300 nM SA-APC, 6 nM Eu—Py20 in assay buffer (Perkin Elmer, Boston, Mass.). Binding to the Europium labeled antibody took place for 40 minutes and HTRF signal was measured on a Fusion plate reader (Perkin Elmer, Boston, Mass.).

TF1-BCRABL1 cells = TF1-BCRABL1 cells (Homo sapiens, UniProt P00519); assay: ABL1 cell based assay: viability of ABL1-dependent cell line (CellTiter-Glo); conditions: 72 hours, cell viability; read-out: EXAMPLE F JAK2-TF1-BCRABL1 IC50
Protocol: One or more compounds herein were tested for inhibitory activity of ABL1 targets according to at least one of the following cellular assays.
Cancer cell lines dependent on ABL1 kinase activity for proliferation and/or survival were plated at 3000 cells per well (96 well plate format) in RPMI 1640, and 10% FBS. Compounds were added to the cells in DMSO/media (final concentration 0.2% DMSO) and incubated for 72 hours at 37° C., 5% CO2. The effect of compound on cell viability was assessed using the CellTiter-Glo Luminescent Cell Viability Assay (Promega) followed by TopCount (Perkin Elmer, Boston, Mass.) quantitation. ABL1-dependent cell lines can include those naturally dependent on ABL1 activity or those engineered to be dependent on ABL1 activity (e.g. BaF/3 cells). The latter can be generated using wild-type ABL1 or mutant ABL1 (such as T315I ABL1) so that the activity of compounds can be assessed against different variants of the ABL1 kinase. Potential off-target effects of compounds were measured in parallel using a non-ABL1 driven cell line with the same assay readout. […] All experiments were performed in duplicate or greater.

[3] = biological target: T2, human JAK1 (a.a. 837-1142) (Homo sapiens, UniProt P23458); assay: In vitro JAK kinase assay (HTRF), JAK1; format: biochemical; conditions: JAK1, 90 μM ATP; read-out: EXAMPLE A JAK2-JAK1 HTRF-2 IC50
T2 construct: human JAK1 (a.a. 837-1142); His tag (N); made in house; host or cells: insect cells (baculovirus)
Protocol: as §1

[4] = biological target: T3, human JAK2 (a.a. 828-1132) (Homo sapiens, UniProt O60674); assay: In vitro JAK kinase assay (HTRF), JAK2; format: biochemical; conditions: JAK2, 30 μM ATP; read-out: EXAMPLE A HTS-JAK2 HTRF-2 IC50
T3 construct: JAK2 (a.a. 828-1132); His tag (N); made in house; host or cells: insect cells (baculovirus)
Protocol: as §1

T2 sequence (P23458 849-1154): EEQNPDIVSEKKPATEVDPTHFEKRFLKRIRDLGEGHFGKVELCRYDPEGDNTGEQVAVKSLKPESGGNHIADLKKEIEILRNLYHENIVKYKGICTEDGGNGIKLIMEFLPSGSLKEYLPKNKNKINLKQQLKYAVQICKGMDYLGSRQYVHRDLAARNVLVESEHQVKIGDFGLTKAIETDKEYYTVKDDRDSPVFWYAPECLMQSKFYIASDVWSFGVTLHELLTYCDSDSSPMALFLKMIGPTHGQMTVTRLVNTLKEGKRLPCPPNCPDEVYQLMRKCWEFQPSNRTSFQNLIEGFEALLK
TF1-BCRABL1 cells, sequence (P00519 whole entry, change not shown): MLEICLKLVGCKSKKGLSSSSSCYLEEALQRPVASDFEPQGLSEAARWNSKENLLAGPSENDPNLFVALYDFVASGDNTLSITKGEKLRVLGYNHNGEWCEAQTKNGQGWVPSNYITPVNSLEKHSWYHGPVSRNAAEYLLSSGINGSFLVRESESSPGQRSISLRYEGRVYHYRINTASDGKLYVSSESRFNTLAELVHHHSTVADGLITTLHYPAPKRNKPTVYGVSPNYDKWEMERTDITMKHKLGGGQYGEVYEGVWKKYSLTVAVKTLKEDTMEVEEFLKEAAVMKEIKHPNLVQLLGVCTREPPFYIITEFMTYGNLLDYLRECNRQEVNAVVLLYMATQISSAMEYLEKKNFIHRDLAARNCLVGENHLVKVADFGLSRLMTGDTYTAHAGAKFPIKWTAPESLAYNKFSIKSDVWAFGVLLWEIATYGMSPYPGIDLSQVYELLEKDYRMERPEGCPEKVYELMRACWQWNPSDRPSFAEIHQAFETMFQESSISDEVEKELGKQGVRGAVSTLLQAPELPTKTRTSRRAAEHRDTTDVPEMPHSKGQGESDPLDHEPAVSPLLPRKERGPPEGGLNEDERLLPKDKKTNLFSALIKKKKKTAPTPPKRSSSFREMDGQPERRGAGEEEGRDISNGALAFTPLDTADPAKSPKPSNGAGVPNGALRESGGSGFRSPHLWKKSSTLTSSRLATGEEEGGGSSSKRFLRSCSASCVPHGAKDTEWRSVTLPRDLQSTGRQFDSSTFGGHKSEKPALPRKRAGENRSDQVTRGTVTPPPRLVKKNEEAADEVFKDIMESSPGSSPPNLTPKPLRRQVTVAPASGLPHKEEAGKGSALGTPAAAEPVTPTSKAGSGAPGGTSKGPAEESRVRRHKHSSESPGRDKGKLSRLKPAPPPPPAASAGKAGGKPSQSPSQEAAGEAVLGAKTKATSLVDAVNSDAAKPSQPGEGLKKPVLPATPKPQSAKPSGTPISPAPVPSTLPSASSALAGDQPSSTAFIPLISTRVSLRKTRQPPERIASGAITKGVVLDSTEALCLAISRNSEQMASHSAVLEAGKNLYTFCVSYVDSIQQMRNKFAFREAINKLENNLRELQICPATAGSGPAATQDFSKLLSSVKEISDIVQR
T3 sequence (O60674 828-1132): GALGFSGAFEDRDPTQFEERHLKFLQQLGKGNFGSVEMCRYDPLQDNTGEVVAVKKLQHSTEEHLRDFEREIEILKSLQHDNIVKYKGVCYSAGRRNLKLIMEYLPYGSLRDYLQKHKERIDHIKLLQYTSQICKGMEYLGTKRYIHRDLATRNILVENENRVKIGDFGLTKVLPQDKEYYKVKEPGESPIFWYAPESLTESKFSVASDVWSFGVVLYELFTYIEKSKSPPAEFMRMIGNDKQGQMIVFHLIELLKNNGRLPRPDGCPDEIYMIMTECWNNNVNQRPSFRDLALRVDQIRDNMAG
T1 sequence (P52333 781-1124): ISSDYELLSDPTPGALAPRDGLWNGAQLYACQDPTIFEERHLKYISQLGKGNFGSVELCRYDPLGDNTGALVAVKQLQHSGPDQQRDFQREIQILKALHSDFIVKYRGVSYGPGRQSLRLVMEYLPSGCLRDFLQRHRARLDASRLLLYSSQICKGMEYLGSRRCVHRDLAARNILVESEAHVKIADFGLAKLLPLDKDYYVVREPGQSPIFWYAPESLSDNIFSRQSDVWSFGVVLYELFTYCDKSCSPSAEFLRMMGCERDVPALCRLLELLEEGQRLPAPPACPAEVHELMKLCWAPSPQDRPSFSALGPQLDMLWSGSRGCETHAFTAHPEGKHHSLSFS

IC50 [1] [nM] | IC50 [2] [nM] | IC50 [3] [nM] | IC50 [4] [nM] | Structure (SMILES) | GI50 (TF1-BCRABL1 cells) [nM]
> 1000 | ≤ 500 | ≤ 500 | > 1000 | Cc1ccc(NC(=O)c2ccccc2C(F)(F)F)cc1-c1ccc2c(c1)[nH]c1ncncc12 [Example 12, N-[4-methyl-3-(9H-pyrimido-[4,5-b]indol-7-yl)phenyl]-2-(trifluoromethyl)benzamide] | 500 to 1000
> 1000 | 500 to 1000 | > 1000 | > 1000 | Cc1ccc(C(=O)N[C@H](C)c2ccccc2)cc1-c1ccc2c(c1)[nH]c1ncncc12 [Example 63, 4-methyl-N-[(1R)-1-phenylethyl]-3-(9H-pyrimido[4,5-b]indol-7-yl)benzamide] | 500 to 1000
500 to 1000 | ≤ 500 | > 1000 | ≤ 500 | Cc1ccc(NC(=O)c2cc(F)cc(C(F)(F)F)c2)cc1-c1ccc2[nH]c3ncncc3c2c1 [Example 43, 3-fluoro-N-[4-methyl-3-(9H-pyrimido[4,5-b]indol-6-yl)-phenyl]-5-(trifluoromethyl)-benzamide] | ≤ 500
> 1000 | ≤ 500 | ≤ 500 | 500 to 1000 | COc1cccc(C(=O)Nc2ccc(C)c(-c3ccc4c(c3)[nH]c3ncncc34)c2)c1 [Example 11, 3-methoxy-N-[4-methyl-3-(9H-pyrimido[4,5-b]indol-7-yl)-phenyl]benzamide] | ≤ 500
> 1000 | > 1000 | ≤ 500 | ≤ 500 | N#Cc1ccc(C(=O)Nc2cccc(C(F)(F)F)c2)cc1-c1ccc2c(c1)[nH]c1ncncc12 [Example 51, 4-Cyano-3-(9H-pyrimido[4,5-b]indol-7-yl)-N-[3-(trifluoromethyl)phenyl]-benzamide] | ≤ 500
> 1000 | ≤ 500 | ≤ 500 | ≤ 500 | Cc1ccc(C(=O)Nc2cccc(C(F)(F)F)c2)cc1-c1ccc2c(c1)[nH]c1ncccc12 [Example 68, 4-Methyl-3-(9H-pyrido[2,3-b]indol-7-yl)-N-[3-(trifluoromethyl)phenyl]benzamide, trifluoroacetate salt] | ≤ 500
> 1000 | > 1000 | ≤ 500 | > 1000 | Cc1ccc(NC(=O)c2cc(C(F)(F)F)ccc2C(F)(F)F)cc1-c1ccc2[nH]c3ncncc3c2c1 [Example 45, N-[4-methyl-3-(9H-pyrimido-[4,5-b]indol-6-yl)phenyl]-2,5-bis(trifluoromethyl)benzamide] | 500 to 1000
500 to 1000 | ≤ 500 | ≤ 500 | ≤ 500 | Cc1ccc(NC(=O)c2cc(N3CCNCC3)cc(C(F)(F)F)c2)cc1-c1ccc2c(c1)[nH]c1ncncc12 [Example 28, N-[4-methyl-3-(9H-pyrimido-[4,5-b]indol-7-yl)phenyl]-3-piperazin-1-yl-5-(trifluoro-methyl)benzamide] | ≤ 500
500 to 1000 | 500 to 1000 | ≤ 500 | > 1000 | Cc1ccc(NC(=O)Nc2cccc(C(F)(F)F)c2)cc1-c1ccc2[nH]c3ncncc3c2c1 [Example 48, N-[4-Methyl-3-(9H-pyrimido[4,5-b]indol-6-yl)phenyl]-N′-[3-(trifluoromethyl)-phenyl]urea] | ≤ 500
≤ 500 | ≤ 500 | ≤ 500 | ≤ 500 | Cc1ccc(NC(=O)c2cccc(C(F)(F)F)c2F)cc1-c1ccc2c(c1)[nH]c1ncncc12 [Example 3, 2-fluoro-N-[4-methyl-3-(9H-pyrimido[4,5-b]indol-7-yl)-phenyl]-3-(trifluoromethyl)-benzamide] | ≤ 500
> 1000 | > 1000 | ≤ 500 | > 1000 | Cc1cnc(NC(=O)c2ccc(C)c(-c3ccc4c(c3)[nH]c3ncncc34)c2)s1 [Example 57, 4-methyl-N-(5-methyl-1,3-thiazol-2-yl)-3-(9H-pyrimido-[4,5-b]indol-7-yl)benzamide] | ≤ 500
500 to 1000 | ≤ 500 | ≤ 500 | ≤ 500 | Cc1ccc(NC(=O)c2cccc(F)c2)cc1-c1ccc2c(c1)[nH]c1ncncc12 [Example 6, 3-fluoro-N-[4-methyl-3-(9H-pyrimido[4,5-b]indol-7-yl)-phenyl]benzamide] | ≤ 500
> 1000 | ≤ 500 | ≤ 500 | > 1000 | Cc1ccc(NC(=O)c2cccc(F)c2)cc1-c1ccc2[nH]c3ncncc3c2c1 [Example 44, 3-fluoro-N-[4-methyl-3-(9H-pyrimido[4,5-b]indol-6-yl)-phenyl]benzamide] | 500 to 1000
500 to 1000 | ≤ 500 | ≤ 500 | ≤ 500 | Cc1ncc(NC(=O)c2cccc(C(F)(F)F)c2)cc1-c1ccc2c(c1)[nH]c1ncncc12 [Example 70, N-[6-methyl-5-(9H-pyrimido[4,5-b]indol-7-yl)pyridin-3-yl]-3-(trifluoromethyl)benzamide] | ≤ 500
> 1000 | ≤ 500 | ≤ 500 | 500 to 1000 | Cc1ccc(NC(=O)Nc2cccc(C(F)(F)F)c2)cc1-c1ccc2c(c1)[nH]c1ncncc12 [Example 47, N-[4-Methyl-3-(9H-pyrimido[4,5-b]indol-7-yl)phenyl]-N′-[3-(trifluoromethyl)-phenyl]urea] | ≤ 500
> 1000 | ≤ 500 | > 1000 | > 1000 | Cc1ccc(C(=O)Nc2nnc(C(F)(F)F)s2)cc1-c1ccc2c(c1)[nH]c1ncncc12 [Example 61, 4-methyl-3-(9H-pyrimido-[4,5-b]indol-7-yl)-N-[5-(trifluoromethyl)-1,3,4-thiadiazol-2-yl]benzamide] | 500 to 1000
> 1000 | ≤ 500 | > 1000 | > 1000 | Cc1ccc(C(=O)N[C@@H](C)c2ccccc2)cc1-c1ccc2c(c1)[nH]c1ncncc12 [Example 64, 4-methyl-N-[(1S)-1-phenylethyl]-3-(9H-pyrimido[4,5-b]indol-7-yl)benzamide] | 500 to 1000
500 to 1000 | ≤ 500 | ≤ 500 | ≤ 500 | Cc1cccc(NC(=O)c2ccc(C)c(-c3ccc4c(c3)[nH]c3ncncc34)c2)c1 [Example 53, 4-methyl-N-(3-methyl-phenyl)-3-(9H-pyrimido-[4,5-b]indol-7-yl)benzamide] | ≤ 500
> 1000 | > 1000 | ≤ 500 | ≤ 500 | O=C(Nc1cccc(C(F)(F)F)c1)c1cccc(-c2ccc3c(c2)[nH]c2ncncc23)c1 [Example 59, 3-(9H-pyrimido[4,5-b]indol-7-yl)-N-[3-(trifluoromethyl)-phenyl]benzamide] | 500 to 1000
